Reference: patent US20260070945A1, “MACROCYCLIC IMMUNOMODULATORS” (Bristol-Myers Squibb Company, priority 2022, published 2026)
Where a SMILES comes first, the peptide text is derived from it. Bridges are numbered along the chain shown (N, C = ends). [ ]: non-standard residue; d: D form. The star is where a group is joined. ξ: configuration not given here. Trp(1-CH2COOH) = N[C@@H](Cc1cn(CC(=O)O)c2ccccc12)C(=O)O; Phe(4-COOH) = N[C@@H](Cc1ccc(C(=O)O)cc1)C(=O)O; Bip = N[C@@H](Cc1ccc(-c2ccccc2)cc1)C(=O)O; Morpholine(3S-CO) = O=C(O)[C@@H]1COCCN1; Phe(3-Me) = Cc1cccc(C[C@H](N)C(=O)O)c1; Val(3-OH) = CC(C)(O)[C@H](N)C(=O)O; 4Pal = N[C@@H](Cc1ccncc1)C(=O)O; 3Thi = N[C@@H](Cc1ccsc1)C(=O)O; Cha = N[C@@H](CC1CCCCC1)C(=O)O; Cit = NC(=O)NCCC[C@H](N)C(=O)O; Ile(3ξ) = CCC(C)[C@H](N)C(=O)O; Thr(3ξ) = CC(O)[C@H](N)C(=O)O; ξY = NC(Cc1ccc(O)cc1)C(=O)O; hSer = N[C@@H](CCO)C(=O)O; Carboxymethyl = O=C(O)C*; NMeA = CN[C@@H](C)C(=O)O; Orn = NCCC[C@H](N)C(=O)O; Aun = NCCCCCCCCCCC(=O)O; Dab = NCC[C@H](N)C(=O)O; AEEA = NCCOCCOCC(=O)O

Biological target: T1, PD-1/PD-L1 interaction (PE-labeled human PD-L1-Ig binding to Jurkat cell line over-expressing human PD-1) (Homo sapiens, UniProt Q15116)
T1 construct: expressed in transfected cells; host or cells: Jurkat
T1 sequence (Q15116 25-288): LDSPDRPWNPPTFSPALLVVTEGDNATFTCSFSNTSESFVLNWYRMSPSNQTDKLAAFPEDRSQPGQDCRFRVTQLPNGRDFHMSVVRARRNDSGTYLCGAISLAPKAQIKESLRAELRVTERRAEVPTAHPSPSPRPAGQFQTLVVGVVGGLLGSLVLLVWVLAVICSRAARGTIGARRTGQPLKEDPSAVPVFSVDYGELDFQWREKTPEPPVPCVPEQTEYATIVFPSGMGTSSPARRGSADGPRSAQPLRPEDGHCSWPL
Experiment: Jurkat-PD-1 Cell Binding High-Content Screening Assay (CBA)
Conditions: Jurkat-hPD-1 cells, PE-labeled PD-L1-Ig 20 nM final; read-out: Jurkat HPD1 PDL1 IC50
How it was run: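 Binding of 20 nM (final) PE-tagged PD-L1-Ig to compound-pretreated Jurkat-hPD-1 cells was measured by high-content imaging after 1 h. Pretreatment ran 2 h at 37 °C in DMEM with 10% fetal calf serum.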

Compound	IC50
Cc1cccc(C[C@@H]2NC(=O)[C@H](CC(=O)O)NC(=O)[C@H](Cc3ccc(OCC(=O)O)cc3)NC(=O)[C@H]([C@@H](C)O)NC(=O)CSC[C@@H](C(=O)N[C@@H](CCN)C(=O)NCCOCCOCC(=O)NCCCCCCCCCCC(=O)O)NC(=O)[C@H](CCC(=O)O)NC(=O)[C@H](C(C)C)NC(=O)[C@H](CC3CCCCC3)NC(=O)[C@H](CC(N)=O)NC(=O)[C@@H](CC(C)C)NC(=O)[C@H](C)N(C)C(=O)[C@H](Cc3ccc(OCC(=O)O)cc3)NC(=O)[C@H](Cc3ccc(-c4ccccc4)cc3)NC(=O)[C@H](Cc3ccc(OCC(=O)O)cc3)NC2=O)c1 [Example 1364] ({CH2CO}-TY(Carboxymethyl)D[Phe(3-Me)]Y(Carboxymethyl)[Bip]Y(Carboxymethyl)[NMeA][dL]N[Cha]VEC[Dab][AEEA][Aun]-OH; thioether N-14)	49.5 nM
CC(C)C[C@@H]1NC(=O)[C@H](Cc2c[nH]c3ccccc23)NC(=O)[C@H](CC(=O)O)NC(=O)[C@H](Cc2ccncc2)NC(=O)[C@H](Cc2ccc(OCC(=O)O)cc2)NC(=O)CSC[C@@H](C(=O)N2CCOC[C@H]2C(=O)NCCCCCCCCCCC(=O)O)NC(=O)[C@H](CCCNC(N)=O)NC(=O)[C@H](C(C)C)NC(=O)[C@H](CC2CCCCC2)NC(=O)[C@H](CCN)NC(=O)[C@@H](CC(C)C)NC(=O)[C@H](C)N(C)C(=O)[C@H](C(C)C)NC(=O)[C@H](Cc2ccc(-c3ccccc3)cc2)NC1=O [Example 1223] ({CH2CO}-Y(Carboxymethyl)[4Pal]DWL[Bip]V[NMeA][dL][Dab][Cha]V[Cit]C[Morpholine(3S-CO)][Aun]-OH; thioether N-14)	420 nM
Cc1cccc(C[C@@H]2NC(=O)[C@H](CC(=O)O)NC(=O)[C@H](Cc3ccc(C(=O)O)cc3)NC(=O)[C@H](Cc3ccc(OCC(=O)O)cc3)NC(=O)CSC[C@@H](C(=O)NCCCCCCCCCCC(=O)O)NC(=O)[C@H](C(C)O)NC(=O)[C@H](C(C)C)NC(=O)[C@H](CC3CCCCC3)NC(=O)[C@H](CCN)NC(=O)[C@@H](CC(C)C)NC(=O)[C@H](C)N(C)C(=O)[C@H](CCCNC(N)=O)NC(=O)[C@H](Cc3ccc(-c4ccccc4)cc3)NC(=O)[C@H](CC(C)C)NC2=O)c1 (stereo partly drawn) [Example 2330] ({CH2CO}-Y(Carboxymethyl)[Phe(4-COOH)]D[Phe(3-Me)]L[Bip][Cit][NMeA][dL][Dab][Cha]V[Thr(3ξ)]C[Aun]-OH; thioether N-14)	38.1 nM
CC(C)C[C@@H]1NC(=O)[C@H](Cc2c[nH]c3ccccc23)NC(=O)[C@H](CC(=O)O)NC(=O)[C@H](Cc2ccc(C(=O)O)cc2)NC(=O)[C@H](Cc2ccc(OCC(=O)O)cc2)NC(=O)CSC[C@@H](C(=O)N[C@@H](CCN)C(=O)NCCOCCOCC(=O)NCCCCCCCCCCC(=O)O)NC(=O)[C@H](Cc2cnc[nH]2)NC(=O)[C@H](C(C)C)NC(=O)[C@H](CC2CCCCC2)NC(=O)[C@H](CCN)NC(=O)[C@@H](CC(C)C)NC(=O)[C@H](C)N(C)C(=O)[C@H](C(C)C)NC(=O)[C@H](Cc2ccc(-c3ccccc3)cc2)NC1=O [Example 1130] ({CH2CO}-Y(Carboxymethyl)[Phe(4-COOH)]DWL[Bip]V[NMeA][dL][Dab][Cha]VHC[Dab][AEEA][Aun]-OH; thioether N-14)	12.3 nM
Cc1cccc(C[C@@H]2NC(=O)[C@H](CC(=O)O)NC(=O)[C@H](Cc3cnc[nH]3)NC(=O)[C@H](Cc3ccc(OCC(=O)O)cc3)NC(=O)CSC[C@@H](C(=O)NCCCCCCCCCCC(=O)O)NC(=O)[C@H](CCC(=O)O)NC(=O)[C@H](C(C)C)NC(=O)[C@H](CC3CCCCC3)NC(=O)[C@H](CCN)NC(=O)[C@@H](CC(C)C)NC(=O)[C@H](C)N(C)C(=O)[C@H](Cc3ccc(O)cc3)NC(=O)[C@H](Cc3ccc(-c4ccccc4)cc3)NC(=O)[C@H](CCC(N)=O)NC2=O)c1 [Example 2258] ({CH2CO}-Y(Carboxymethyl)HD[Phe(3-Me)]Q[Bip]Y[NMeA][dL][Dab][Cha]VEC[Aun]-OH; thioether N-14)	765 nM
Cc1cccc(C[C@@H]2NC(=O)[C@H](CC(=O)O)NC(=O)[C@H](Cc3cn(CC(=O)O)c4ccccc34)NC(=O)[C@H](CCN)NC(=O)CSC[C@@H](C(=O)N[C@@H](CCN)C(=O)NCCCCCCCCCCC(=O)O)NC(=O)[C@H]([C@@H](C)O)NC(=O)[C@H](C(C)C)NC(=O)[C@H](CC3CCCCC3)NC(=O)[C@H](CCN)NC(=O)[C@@H](CC(C)C)NC(=O)[C@H](C)N(C)C(=O)[C@H](Cc3ccc(OCC(=O)O)cc3)NC(=O)[C@H](Cc3ccc(-c4ccccc4)cc3)NC(=O)C(Cc3ccc(OCC(=O)O)cc3)NC2=O)c1 (stereo partly drawn) [Example 1133] ({CH2CO}-[Dab][Trp(1-CH2COOH)]D[Phe(3-Me)][ξY](Carboxymethyl)[Bip]Y(Carboxymethyl)[NMeA][dL][Dab][Cha]VTC[Dab][Aun]-OH; thioether N-14)	29.3 nM
CCC(C)[C@@H]1NC(=O)[C@H](Cc2ccc(-c3ccccc3)cc2)NC(=O)[C@H](CC(C)C)NC(=O)[C@H](Cc2c[nH]c3ccccc23)NC(=O)[C@H](CC(=O)O)NC(=O)[C@H](Cc2ccc(OCC(=O)O)cc2)NC(=O)[C@H](Cc2ccncc2)NC(=O)CSC[C@@H](C(=O)NCCOCCOCC(=O)N[C@@H](CCCN)C(=O)NCCCCCCCCCCC(=O)O)NC(=O)[C@H](CO)NC(=O)[C@H](C(C)C)NC(=O)[C@H](CC(C)C)NC(=O)[C@H](CC(N)=O)NC(=O)[C@@H](CC(C)C)NC(=O)[C@H](C)N(C)C1=O (stereo partly drawn) [Example 2062] ({CH2CO}-[4Pal]Y(Carboxymethyl)DWL[Bip][Ile(3ξ)][NMeA][dL]NLVSC[AEEA][Orn][Aun]-OH; thioether N-14)	38.1 nM

Continued, values first:

IC50	Compound
30.1 nM	Cc1cccc(C[C@@H]2NC(=O)[C@H](CC(=O)O)NC(=O)[C@H](Cc3ccc(OCC(=O)O)cc3)NC(=O)[C@H](C(C)O)NC(=O)CSC[C@@H](C(=O)N[C@@H](CCN)C(=O)NCCCCCCCCCCC(=O)O)NC(=O)[C@H](CCO)NC(=O)[C@H](C(C)C)NC(=O)[C@H](CC3CCCCC3)NC(=O)[C@H](CCN)NC(=O)[C@@H](CC(C)C)NC(=O)[C@H](C)N(C)C(=O)[C@H](Cc3ccc(OCC(=O)O)cc3)NC(=O)[C@H](Cc3ccc(-c4ccccc4)cc3)NC(=O)[C@H](CCCNC(N)=O)NC2=O)c1 (stereo partly drawn) [Example 2348] ({CH2CO}-[Thr(3ξ)]Y(Carboxymethyl)D[Phe(3-Me)][Cit][Bip]Y(Carboxymethyl)[NMeA][dL][Dab][Cha]V[hSer]C[Dab][Aun]-OH; thioether N-14)
11.6 nM	CC[C@H](C)[C@@H]1NC(=O)[C@H](Cc2cccc(C)c2)NC(=O)[C@H](CC(=O)O)NC(=O)[C@H](Cc2ccc(C(=O)O)cc2)NC(=O)[C@H](CCN)NC(=O)CSC[C@@H](C(=O)N[C@@H](CCN)C(=O)NCCCCCCCCCCC(=O)O)NC(=O)[C@H](CO)NC(=O)[C@H](C(C)(C)O)NC(=O)[C@H](CC2CCCCC2)NC(=O)[C@H](CCN)NC(=O)[C@@H](CC(C)C)NC(=O)[C@H](C)N(C)C(=O)[C@H](Cc2ccc(OCC(=O)O)cc2)NC(=O)[C@H](Cc2ccc(-c3ccccc3)cc2)NC1=O [Example 1299] ({CH2CO}-[Dab][Phe(4-COOH)]D[Phe(3-Me)]I[Bip]Y(Carboxymethyl)[NMeA][dL][Dab][Cha][Val(3-OH)]SC[Dab][Aun]-OH; thioether N-14)
9.9 nM	CCC(C)[C@@H]1NC(=O)[C@H](Cc2ccc(-c3ccccc3)cc2)NC(=O)[C@H](C(C)C)NC(=O)[C@H](Cc2c[nH]c3ccccc23)NC(=O)[C@H](CC(=O)O)NC(=O)[C@H](Cc2ccc(OCC(=O)O)cc2)NC(=O)[C@H](Cc2ccncc2)NC(=O)CSC[C@@H](C(=O)N[C@H](CC(N)=O)C(=O)NCCOCCOCC(=O)NCCCCCCCCCCC(=O)O)NC(=O)[C@H](CO)NC(=O)[C@H](C(C)C)NC(=O)[C@H](CC2CCCCC2)NC(=O)[C@H](CCN)NC(=O)[C@@H](CC(C)C)NC(=O)[C@H](C)N(C)C1=O (stereo partly drawn) [Example 2028] ({CH2CO}-[4Pal]Y(Carboxymethyl)DWV[Bip][Ile(3ξ)][NMeA][dL][Dab][Cha]VSC[dN][AEEA][Aun]-OH; thioether N-14)
6.7 nM	Cc1cccc(C[C@@H]2NC(=O)[C@H](CC(=O)O)NC(=O)[C@H](Cc3ccc(OCC(=O)O)cc3)NC(=O)[C@H](C(C)O)NC(=O)CSC[C@@H](C(=O)N[C@@H](CCN)C(=O)NCCCCCCCCCCC(=O)O)NC(=O)[C@H](C(C)O)NC(=O)[C@H](C(C)C)NC(=O)[C@H](CC3CCCCC3)NC(=O)[C@H](CCN)NC(=O)[C@@H](CC(C)C)NC(=O)[C@H](C)N(C)C(=O)[C@H](CCCNC(N)=O)NC(=O)[C@H](Cc3ccc(-c4ccccc4)cc3)NC(=O)[C@H](C(C)C)NC2=O)c1 (stereo partly drawn) [Example 2336] ({CH2CO}-[Thr(3ξ)]Y(Carboxymethyl)D[Phe(3-Me)]V[Bip][Cit][NMeA][dL][Dab][Cha]V[Thr(3ξ)]C[Dab][Aun]-OH; thioether N-14)

Same assay, conditions: PE-labeled PD-L1-Ig 20 nM final, Jurkat-hPD-1 cells; read-out: Jurkat HPD1 PDL1 IC50

IC50	Compound
41.2 nM	Cc1cccc(C[C@@H]2NC(=O)[C@H](CC(=O)O)NC(=O)[C@H](Cc3ccc(OCC(=O)O)cc3)NC(=O)[C@H](Cc3ccsc3)NC(=O)CSC[C@@H](C(=O)N[C@@H](CCN)C(=O)NCCCCCCCCCCC(=O)O)NC(=O)[C@H](CO)NC(=O)[C@H](C(C)(C)O)NC(=O)[C@H](CC3CCCCC3)NC(=O)[C@H](Cc3cnc[nH]3)NC(=O)[C@@H](CC(C)C)NC(=O)[C@H](C)N(C)C(=O)[C@H](Cc3ccc(OCC(=O)O)cc3)NC(=O)[C@H](Cc3ccc(-c4ccccc4)cc3)NC(=O)[C@H](Cc3ccc(OCC(=O)O)cc3)NC2=O)c1 [Example 2457] ({CH2CO}-[3Thi]Y(Carboxymethyl)D[Phe(3-Me)]Y(Carboxymethyl)[Bip]Y(Carboxymethyl)[NMeA][dL]H[Cha][Val(3-OH)]SC[Dab][Aun]-OH; thioether N-14)
